Source: patent publication US6008209A, “Method of using vitamin D3 analogs with bis C-20 side chains” (Hoffmann-La Roche Inc., priority 1998, dated 1999)

Columns and labels:
ZR-75 cells = experiment: Cell proliferation assay in ZR-75 breast cancer cells; type: cell-based, human; conditions: for IC50: Homo sapiens, ZR75, 240 h, ZR-75, 10 days, MTT, read-out: IC50 (half-maximal reduction in 570 nm absorbance)
Procedure: ZR-75 cells are human mammary carcinoma cells that are positive for estrogen receptors. The potential activity of vitamin D3 analogs against breast cancer was assessed from inhibition of proliferation of ZR-75 cells in culture.
ZR-75 cells were plated at 12,500 cells/well in 24-well plates and incubated at 37° C. in 5% CO2 /95% air in RPMI medium containing 10% fetal bovine serum and 2 mM glutamine. Stock solutions of vitamin D3 analogs were prepared at a concentration of 10 mM in absolute ethanol and stored at -20° C. under argon. One day after plating, ZR-75 cells were refed with either control medium or medium containing varying concentrations of the vitamin D3 analog.
The IC50 value was defined as the concentration of the vitamin D3 analog corresponding to half-maximal reduction in 570 nm absorbance.

[1] = Serum calcium in rat renal insufficiency model (7/8 nephrectomy); type: in vivo, Female Sprague Dawley rats; design: Final Ca Levels: unit not given here; conditions: for Final Ca Levels: po, seven days, serum
Procedure: (§1) Female Sprague Dawley rats were anesthesized, their right kidney removed and 2-3 branches of the left renal artery were ligated to achieve 7/8 nephrectomy. They were placed on a high phosphorous diet (0.6% Ca and 0.8 phosphorous). Approximately 3-6 weeks after surgery, rats were bled to screen serum PTH levels and rats with PTH levels between 100-500 pg/ml were selected for the study.
(§2) 1 6 Formula Ia, 10 μg/kg/day, po
(§3) 2 6 Formula Ia, 1 μg/kg/day, po
(§4) 3 6 Formula Ia, 0.1 μg/kg/day, po
(§5) There was a pre-bleed (T=0) and each group was dosed daily for seven days by oral gavage with either the compound of Formula Ia (10, 1 or 0.1 μg/kg/day), vehicle control or 1,24(OH)2 vitamin D3 positive control. Compounds were predissolved in ethanol and diluted with vehicle (Miglyol 812) followed by evaporation of the ethanol.
(§6) After the last day of dosing, the animals were bled again (T=1) and sacrificed. Serum PTH assays were done with Nichols Institute Diagnostic Kit #40-2240. Serum calcium assays were done with Sigma Diagnostic Kit #587 with o-cresophthaleiri. Serum creatinine assays were done with Sigma Diagnostic Kit #1600-320 with […].

[2] = test system: parathyroid hormone (serum PTH); experiment: Serum PTH suppression in rat renal insufficiency model (7/8 nephrectomy, secondary hyperparathyroidism); type: in vivo, Female Sprague Dawley rats; conditions: for PTH T = 1 - T = 0: po, seven days
Procedure: as §1, §2, §3, §4, §5, §6

MCF-7 cells = experiment: Cell proliferation assay in MCF-7 breast cancer cells; type: cell-based, human; conditions: for IC50: Homo sapiens, MCF7, 168 h, MCF-7, 7 days, MTT, read-out: IC50 (half-maximal reduction in 570 nm absorbance)
Procedure: MCF-7 cells are human mammary carcinoma cells that are positive for estrogen receptors. The potential activity of vitamin D3 analogs against breast cancer was assessed from inhibition of proliferation of MCF-7 cells in culture.
MCF-7 cells were plated at 5000 cells/well in 96-well plates and incubated at 37° C. in 5% CO2 /95% air in Dulbecco's Modified Eagle Medium containing 10% fetal bovine serum 700 nM insulin, 2 mM glutamine, 0.1 mM MEM non-essential amino acids and 1 mM sodium pyruvate. Stock solutions of vitamin D3 analogs were prepared at a concentration of 10 mM in absolute ethanol and stored at -20° C. under argon. One day after plating, MCF-7 cells were refed with either control medium or medium containing varying concentrations of the vitamin D3 analog.
For each vitamin D3 analog, the IC50 value was determined from a graph relating the optical density at 570 nm to the concentration used. The IC50 value was defined as the concentration of the vitamin D3 analog corresponding to half-maximal reduction in 570 nm absorbance.

murine leukemia = murine leukemia model systems; cited from earlier work
[3] = test system: postmenopausal osteoporosis; conditions: cited from earlier work
PTH synthesis = conditions: cited from earlier work
[4] = cited from earlier work
[5] = test system: steroid-induced bone loss; conditions: 0.5 to 1.0 micrograms/day plus calcium 1000 mg/day, with or without intranasal calcitonin 400 IU/day; cited from earlier work
bone = conditions: animal studies; cited from earlier work

## C=C1/C(=C\C=C2/CCC[C@]3(C)[C@@H](C(CCCC(C)(C)O)CCCC(C)(C)O)CC[C@@H]23)C[C@@H](O)C[C@@H]1O [Formula Ia, (1α,3β,5Z,7E)-21-(3-hydroxy-3-methylbutyl)-9,10-Secocholesta-5,7,10, (19)-triene-1,3,25-triol]
ZR-75 cells
  IC50: 0.3 nM
ZR-75 cells; ZR-75
  potency relative to 1,25-dihydroxy-cholecalciferol in inhibition of ZR-75 growth: more than 40 times
[1]; 0.1 μg/kg/day
  Final Ca Levels: 10.20
[1]; 1 μg/kg/day
  Final Ca Levels: 10.35
[1]; 10 μg/kg/day
  Final Ca Levels: 11.97
[1]; in words
  elevated calcium levels: without causing elevated calcium levels
[2]; 0.1 μg/kg/day
  PTH T = 1 - T = 0: 112 pg/mL
[2]; 1 μg/kg/day
  PTH T = 1 - T = 0: -124 pg/mL
[2]; 10 μg/kg/day
  PTH T = 1 - T = 0: -132 pg/mL
[2]; in words
  suppressing the elevated levels of parathyroid hormone, versus 1,25(OH)2 vit. D3: more effective than 1,25(OH)2 vit. D3
MCF-7 cells
  IC50: 0.8 nM
MCF-7 cells; MCF-7
  potency relative to 1,25-dihydroxy-cholecalciferol in inhibition of MCF-7 growth: approximately 50 times

## C=C1/C(=C\C=C2/CCC[C@]3(C)[C@@H]([C@H](C)CCCC(C)(C)O)CC[C@@H]23)C[C@@H](O)C[C@@H]1O [1,25(OH)2 vit. D3, 1,25-Dihydroxy-cholecalciferol]
ZR-75 cells
  IC50: 13 nM
Murine leukemia
  anti-proliferative and differentiating effect: not only an anti-proliferative effect, but also a differentiating effect
[3]; 0.25 microgram twice daily, 3 years, mild to moderate disease
  lower rate of new vertebral fractures versus elemental calcium 1000 mg/day: 3 fold
[3]; at recommended dosages
  hypercalcaemia: infrequent and mild
[3]; human, in vivo
  therapeutic window: proximity of therapeutic and toxic doses: close proximity of therapeutic and toxic doses
[3]; overall
  tolerability: well tolerated
PTH synthesis
  suppressive action on PTH synthesis: direct suppressive action on PTH synthesis
[4]; high dose treatment
  hypercalcemia in vivo: hypercalcemia observed with high dose treatment
[4]; human usage
  therapeutic ratio: poor therapeutic ratio (hypercalciuria and hypercalcemia as well as nephrotoxicity)
[4]; narrow therapeutic window, especially at high doses
  hypercalcemic effects: potent hypercalcemic effects
[5]
  steroid-induced bone loss: prevented steroid-induced bone loss
[2]; 0.1 μg/kg (table 2; table 1: 0.2 μg/kg/day)
  PTH T = 1 - T = 0: -66 pg/mL
MCF-7 cells
  IC50: 40 nM
bone
  bone anabolic activity: suggested bone anabolic activity
